Laboratory results taken from patent US20100298141A1, “SUBSTITUTED PYRIDINE N-OXIDE HERBICIDES” (E. I. DU PONT DE NEMOURS AND COMPANY, priority 2007, published 2010).

How the values were obtained:
[1] = tested on: Italian ryegrass; assay: Test D preemergence test; assay type: in vivo, Lolium multiflorum; settings: scale 0 to 100
Outline: (§1)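 Test chemicals, formulated in a surfactant-containing non-phytotoxic solvent mixture, are applied preemergence after the seeds are planted. Entries shown as a dash mean no result was obtained.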

[2] = tested on: sorghum; assay: Test G preemergence test; assay type: in vivo, Sorghum vulgare; settings: scale 0 to 100
[3] = tested on: barnyardgrass; assay: Test B flooded paddy test; assay type: in vivo, Echinochloa crus-galli; settings: Flood, 250 g ai/ha, 13 to 15 days; scale 0 to 100, 0 no effect, 100 complete control
Description: (§2) At time of treatment, test pots were flooded to 3 cm above the soil surface, treated by application of test compounds directly to the paddy water, and then maintained at that water depth for the duration of the test. Treated plants and controls were maintained in a greenhouse for 13 to 15 days, after which time all species were compared to controls and visually evaluated. […] A dash (-) response means no test result.

[4] = tested on: spring wheat; assay: Test D preemergence test; assay type: in vivo, Triticum aestivum; settings: scale 0 to 100
Outline: as §1

[5] = tested on: winter wheat; assay: Test D preemergence test; assay type: in vivo, Triticum aestivum; settings: scale 0 to 100
Outline: as §1

[6] = tested on: littleseed canarygrass; assay: Test D preemergence test; assay type: in vivo, Phalaris minor; settings: scale 0 to 100
Outline: as §1

[7] = tested on: tall waterhemp; assay: Test G preemergence test; assay type: in vivo, Amaranthus tuberculatos; settings: scale 0 to 100
[8] = tested on: downy bromegrass; assay: Test D preemergence test; assay type: in vivo, Bromus tectorum; settings: scale 0 to 100
Outline: as §1

[9] = tested on: field violet; assay: Test D preemergence test; assay type: in vivo, Viola arvensis; settings: scale 0 to 100
Outline: as §1

[10] = tested on: goosegrass; assay: Test G preemergence test; assay type: in vivo, Eleusine indica; settings: scale 0 to 100
[11] = tested on: umbrella sedge; assay: Test B flooded paddy test; assay type: in vivo, Cyperus difformis; settings: Flood, 250 g ai/ha, 13 to 15 days; scale 0 to 100, 0 no effect, 100 complete control
Description: as §2

[12] = tested on: rice; assay: Test B flooded paddy test; assay type: in vivo, Oryza sativa; settings: Flood, 250 g ai/ha, 13 to 15 days; scale 0 to 100, 0 no effect, 100 complete control
Description: as §2

[13] = tested on: soybean; assay: Test G preemergence test; assay type: in vivo, Glycine max; settings: scale 0 to 100
[14] = tested on: yellow nutsedge; assay: Test G preemergence test; assay type: in vivo, Cyperus esculentus; settings: scale 0 to 100
[15] = tested on: field sandbur; assay: Test G preemergence test; assay type: in vivo, Cenchrus incertus; settings: scale 0 to 100
[16] = tested on: winter barley; assay: Test D preemergence test; assay type: in vivo, Hordeum vulgare
Outline: as §1

[17] = tested on: yellow foxtail; assay: Test G preemergence test; assay type: in vivo, Pennisetum glaucum; settings: scale 0 to 100
[18] = tested on: woolly cupgrass; assay: Test G preemergence test; assay type: in vivo, Eriochloa villosa; settings: scale 0 to 100
[19] = tested on: millet foxtail; assay: Test G preemergence test; assay type: in vivo, Setaria italica; settings: scale 0 to 100
[20] = tested on: annual bluegrass; assay: Test D preemergence test; assay type: in vivo, Poa annua; settings: scale 0 to 100
Outline: as §1

[21] = tested on: corn; assay: Test G preemergence test; assay type: in vivo, Zea mays; settings: scale 0 to 100
[22] = tested on: itchgrass; assay: Test G preemergence test; assay type: in vivo, Rottboellia cochinchinensis; settings: scale 0 to 100
[23] = tested on: duck salad; assay: Test B flooded paddy test; assay type: in vivo, Heteranthera limosa; settings: Flood, 250 g ai/ha, 13 to 15 days; scale 0 to 100, 0 no effect, 100 complete control
Description: as §2

[24] = tested on: blackgrass; assay: Test D preemergence test; assay type: in vivo, Alopecurus myosuroides; settings: scale 0 to 100
Outline: as §1

[25] = tested on: wild oat; assay: Test D preemergence test; assay type: in vivo, Avena fatua; settings: scale 0 to 100
Outline: as §1

[26] = tested on: barnyardgrass; assay: Test G preemergence test; assay type: in vivo, Echinochloa crus-galli; settings: scale 0 to 100

## Cc1cc[n+]([O-])c([S+]([O-])Cc2c(C(F)(F)F)nn(C)c2OC(F)F)c1 (centres unmarked) [Compound 1]
[1]; 31 g ai/ha
  Plant response rating, Ryegrass, Italian: 0
[1]; 62 g ai/ha
  Plant response rating, Ryegrass, Italian: 20
[1]; 125 g ai/ha
  Plant response rating, Ryegrass, Italian: 30
[1]; 250 g ai/ha
  Plant response rating, Ryegrass, Italian: 95
[2]; 31 g ai/ha
  Plant response rating, Sorghum: 0
[2]; 62 g ai/ha
  Plant response rating, Sorghum: 0
[2]; 125 g ai/ha
  Plant response rating, Sorghum: 40
[2]; 250 g ai/ha
  Plant response rating, Sorghum: 50
[3]
  Plant response rating, Barnyardgrass: 80
[4]; 31 g ai/ha
  Plant response rating, Wheat, Spring: 0
[4]; 62 g ai/ha
  Plant response rating, Wheat, Spring: 0
[4]; 125 g ai/ha
  Plant response rating, Wheat, Spring: 30
[4]; 250 g ai/ha
  Plant response rating, Wheat, Spring: 45
[5]; 31 g ai/ha
  Plant response rating, Wheat, Winter: 0
[5]; 62 g ai/ha
  Plant response rating, Wheat, Winter: 5
[5]; 125 g ai/ha
  Plant response rating, Wheat, Winter: 50
[5]; 250 g ai/ha
  Plant response rating, Wheat, Winter: 60
[6]; 31 g ai/ha
  Plant response rating, Canarygrass: 0
[6]; 62 g ai/ha
  Plant response rating, Canarygrass: 100
[6]; 125 g ai/ha
  Plant response rating, Canarygrass: 80
[6]; 250 g ai/ha
  Plant response rating, Canarygrass: 100
[7]; 31 g ai/ha
  Plant response rating, Waterhemp: 40
[7]; 62 g ai/ha
  Plant response rating, Waterhemp: 100
[7]; 125 g ai/ha
  Plant response rating, Waterhemp: 100
[7]; 250 g ai/ha
  Plant response rating, Waterhemp: 100
[8]; 31 g ai/ha
  Plant response rating, Bromegrass, Downy: 0
[8]; 62 g ai/ha
  Plant response rating, Bromegrass, Downy: 30
[8]; 125 g ai/ha
  Plant response rating, Bromegrass, Downy: 40
[8]; 250 g ai/ha
  Plant response rating, Bromegrass, Downy: 40
[9]; 31 g ai/ha
  Plant response rating, Field Violet: 20
[9]; 62 g ai/ha
  Plant response rating, Field Violet: 20
[9]; 125 g ai/ha
  Plant response rating, Field Violet: 20
[9]; 250 g ai/ha
  Plant response rating, Field Violet: 75
[10]; 31 g ai/ha
  Plant response rating, Goosegrass: 70
[10]; 62 g ai/ha
  Plant response rating, Goosegrass: 90
[10]; 125 g ai/ha
  Plant response rating, Goosegrass: 100
[10]; 250 g ai/ha
  Plant response rating, Goosegrass: 100
[11]
  Plant response rating, Umbrella Sedge: 100
[12]
  Plant response rating, Rice, Transplanted: 80
[13]; 31 g ai/ha
  Plant response rating, Soybean: 0
[13]; 62 g ai/ha
  Plant response rating, Soybean: 20
[13]; 125 g ai/ha
  Plant response rating, Soybean: 20
[13]; 250 g ai/ha
  Plant response rating, Soybean: 25
[14]; 31 g ai/ha
  Plant response rating, Nutsedge, Yellow: 0
[14]; 62 g ai/ha
  Plant response rating, Nutsedge, Yellow: 35
[14]; 125 g ai/ha
  Plant response rating, Nutsedge, Yellow: 75
[14]; 250 g ai/ha
  Plant response rating, Nutsedge, Yellow: 40
[15]; 31 g ai/ha
  Plant response rating, Sandbur: 0
[15]; 62 g ai/ha
  Plant response rating, Sandbur: 40
[15]; 125 g ai/ha
  Plant response rating, Sandbur: 65
[15]; 250 g ai/ha
  Plant response rating, Sandbur: 100
[16]; Preemergence, 62 g ai/ha, scale 0 to 100
  Plant response rating, Barley: 0
[16]; Preemergence, 125 g ai/ha, scale 0 to 100
  Plant response rating, Barley: 40
[16]; Preemergence, 31 g ai/ha, scale 0 to 100
  Plant response rating, Barley: 0
[16]; preemergence, 250 g ai/ha, scale 0 (no effect) to 100 (complete control)
  Plant response rating, Barley: 50
[17]; 31 g ai/ha
  Plant response rating, Foxtail, Yellow: 20
[17]; 62 g ai/ha
  Plant response rating, Foxtail, Yellow: 100
[17]; 125 g ai/ha
  Plant response rating, Foxtail, Yellow: 100
[17]; 250 g ai/ha
  Plant response rating, Foxtail, Yellow: 100
[18]; 31 g ai/ha
  Plant response rating, Cupgrass, Woolly: 30
[18]; 62 g ai/ha
  Plant response rating, Cupgrass, Woolly: 70
[18]; 125 g ai/ha
  Plant response rating, Cupgrass, Woolly: 50
[18]; 250 g ai/ha
  Plant response rating, Cupgrass, Woolly: 100
[19]; 31 g ai/ha
  Plant response rating, Foxtail, Millet: 0
[19]; 62 g ai/ha
  Plant response rating, Foxtail, Millet: 100
[19]; 125 g ai/ha
  Plant response rating, Foxtail, Millet: 100
[19]; 250 g ai/ha
  Plant response rating, Foxtail, Millet: 100
[20]; 31 g ai/ha
  Plant response rating, Bluegrass: 0
[20]; 62 g ai/ha
  Plant response rating, Bluegrass: 75
[20]; 125 g ai/ha
  Plant response rating, Bluegrass: 90
[20]; 250 g ai/ha
  Plant response rating, Bluegrass: 100
[21]; 31 g ai/ha
  Plant response rating, Corn: 0
[21]; 62 g ai/ha
  Plant response rating, Corn: 5
[21]; 125 g ai/ha
  Plant response rating, Corn: 10
[21]; 250 g ai/ha
  Plant response rating, Corn: 45
[22]; 31 g ai/ha
  Plant response rating, Itchgrass: 20
[22]; 62 g ai/ha
  Plant response rating, Itchgrass: 35
[22]; 125 g ai/ha
  Plant response rating, Itchgrass: 40
[22]; 250 g ai/ha
  Plant response rating, Itchgrass: 60
[23]
  Plant response rating, Ducksalad: 90
[24]; 31 g ai/ha
  Plant response rating, Blackgrass: 5
[24]; 62 g ai/ha
  Plant response rating, Blackgrass: 60
[24]; 125 g ai/ha
  Plant response rating, Blackgrass: 70
[24]; 250 g ai/ha
  Plant response rating, Blackgrass: 100
[25]; 31 g ai/ha
  Plant response rating, Oat, Wild: 0
[25]; 62 g ai/ha
  Plant response rating, Oat, Wild: 0
[25]; 125 g ai/ha
  Plant response rating, Oat, Wild: 20
[25]; 250 g ai/ha
  Plant response rating, Oat, Wild: 40
[26]; 31 g ai/ha
  Plant response rating, Barnyardgrass: 20
[26]; 62 g ai/ha
  Plant response rating, Barnyardgrass: 65
[26]; 125 g ai/ha
  Plant response rating, Barnyardgrass: 100
[26]; 250 g ai/ha
  Plant response rating, Barnyardgrass: 100
